Reference: patent US20030211942A1, “Aryl sulfonyl amino carbonyl triazole based selective herbicides” (priority 2000, published 2003)

Assays:
Experiment in all cases: Post-emergence/greenhouse herbicidal test
Assay type in all cases: in vivo
Abutilon theophrasti = conditions: 30 g of ai/ha, post-emergence, about 3 weeks
Source text: (§1) Procarbazone- and flucarbazone-sodium were used as 70 WG formulation. Fenoxaprop-P-ethyl was used in a mixture with mefenpyr-diethyl (75 g of mefenpyr-diethyl/l) as Ralon® Super 69 EW. Cinidon-ethyl and florasulam and iodosufuron in a mixture with mefenpyr-diethyl were used in the form of the finished formulations Lotus® 200 EC, Primus® 50 SC and Hussar® 5 WG (15% mefenpyr-diethyl), respectively. Amicarbazone was used as 70 WG formulation.
(§2) In pre- and post-emergence experiments, the spray liquor is usually admixed with a surfactant (Renex 36), at a concentration of 0.1%.
(§3) Test plants are grown under controlled conditions (temperature and light).
(§4) Following the spray application, the plant containers are kept in a greenhouse under constant light and temperature conditions.
(§5) After about 3 weeks, the degree of damage to the plants is rated in % damage in comparison to the development of the untreated control.
(§6) 0% =no damage (like untreated control)
(§7) 100% =total destruction/damage

Avena fatua = test system: Avena fatua
Source text: as §1, §2, §3, §4, §5, §6, §7

Cassia tora = conditions: post-emergence, about 3 weeks
Source text: as §1, §2, §3, §4, §5, §6, §7

Eriochloa villosa = conditions: post-emergence, about 3 weeks
Source text: as §1, §2, §3, §4, §5, §6, §7

Matricaria inodora = conditions: application rate 30 g ai/ha
Source text: as §1, §2, §3, §4, §5, §6, §7

Stellaria media = conditions: post-emergence, about 3 weeks
Source text: as §1, §2, §3, §4, §5, §6, §7

Viola arvensis = conditions: post-emergence, about 3 weeks
Source text: as §1, §2, §3, §4, §5, §6, §7

Xanthium strumarium = conditions: post-emergence, about 3 weeks
Source text: as §1, §2, §3, §4, §5, §6, §7

Alopecurus myosuroides = conditions: post-emergence, about 3 weeks
Source text: as §1, §2, §3, §4, §5, §6, §7

Bromus secalinus = conditions: post-emergence, about 3 weeks
Source text: as §1, §2, §3, §4, §5, §6, §7

Cyperus esculentus = conditions: post-emergence, about 3 weeks
Source text: as §1, §2, §3, §4, §5, §6, §7

Echinochloa crus-galli = conditions: post-emergence, about 3 weeks
Source text: as §1, §2, §3, §4, §5, §6, §7

Lolium perenne = conditions: post-emergence, about 3 weeks
Source text: as §1, §2, §3, §4, §5, §6, §7

Amaranthus retroflexus = conditions: post-emergence, about 3 weeks
Source text: as §1, §2, §3, §4, §5, §6, §7

Chenopodium album = conditions: post-emergence, about 3 weeks
Source text: as §1, §2, §3, §4, §5, §6, §7

Datura strumarium = conditions: post-emergence, about 3 weeks
Source text: as §1, §2, §3, §4, §5, §6, §7

Galium aparine = conditions: post-emergence, about 3 weeks
Source text: as §1, §2, §3, §4, §5, §6, §7

Ipomoea hederacea = conditions: post-emergence, about 3 weeks
Source text: as §1, §2, §3, §4, §5, §6, §7

Polygonum convolvolus = conditions: post-emergence, about 3 weeks
Source text: as §1, §2, §3, §4, §5, §6, §7

Solanum nigrum = conditions: post-emergence, about 3 weeks
Source text: as §1, §2, §3, §4, §5, §6, §7

With `CC(C)c1nn(C(=O)NC(C)(C)C)c(=O)n1N` [Amicarbazone, 4-amino-N-(1,1-dimethyl-ethyl)-4,5-dihydro-3-(1-methyl-ethyl)-5-oxo-1H-1,2,4-triazole-1-carboxamide] the Abutilon theophrasti observed (Abutilon theophrasti) was 80%, the Avena fatua observed (Avena fatua; application rate 30 g ai/ha) was 0 and the Cassia tora observed (Cassia tora; 30 g of ai/ha) was 40%. For the same molecule, the Eriochloa villosa observed (Eriochloa villosa; 125 g of ai/ha) was 70%, the Matricaria inodora observed (Matricaria inodora) was 60 and the Stellaria media observed (Stellaria media; 60 g of ai/ha) was 80%. For the same molecule, the Viola arvensis observed (Viola arvensis; 30 g of ai/ha) was 70% and the Xanthium strumarium observed (Xanthium strumarium; 30 g of ai/ha) was 80%.
`CCOC(=O)C(Cl)=Cc1cc(N2C(=O)C3=C(CCCC3)C2=O)ccc1Cl` [Cinidon-ethyl, ethyl 2-chloro-3-[2-chloro-5-(1,3,4,5,6,7-hexahydro-1,3-dioxo-2H-isoindol-2-yl)-phenyl]-2-propanoate] gave an Alopecurus myosuroides observed (Alopecurus myosuroides; 8 g of ai/ha) of 0%, an Alopecurus myosuroides observed (Alopecurus myosuroides; 15 g of ai/ha) of 0% and an Avena fatua observed (Avena fatua; 8 g of ai/ha, post-emergence, about 3 weeks) of 0%. It also gave an Avena fatua observed (Avena fatua; 15 g of ai/ha, post-emergence, about 3 weeks) of 10%, a Bromus secalinus observed (Bromus secalinus; 8 g of ai/ha) of 0% and a Bromus secalinus observed (Bromus secalinus; 15 g of ai/ha) of 20%. For the same molecule, the Cassia tora observed (Cassia tora; 15 g of ai/ha) was 95%, the Cyperus esculentus observed (Cyperus esculentus; 8 g of ai/ha) was 0% and the Cyperus esculentus observed (Cyperus esculentus; 15 g of ai/ha) was 20%. It also gave an Echinochloa crus-galli observed (Echinochloa crus-galli; 8 g of ai/ha) of 0%, an Echinochloa crus-galli observed (Echinochloa crus-galli; 15 g of ai/ha) of 0% and an Eriochloa villosa observed (Eriochloa villosa; 15 g of ai/ha) of 30%. It also gave a Lolium perenne observed (Lolium perenne; 8 g of ai/ha) of 0%, a Viola arvensis observed (Viola arvensis; 8 g of ai/ha) of 0% and a Viola arvensis observed (Viola arvensis; 15 g of ai/ha) of 30%.
For `CCOC(=O)[C@@H](C)Oc1ccc(Oc2nc3ccc(Cl)cc3o2)cc1` [Fenoxaprop-P-ethyl, ethyl (R)-2-[4-(6-chloro-benzoxazol-2-yl-oxy)-phenoxy]-propanoate], the Alopecurus myosuroides observed (Alopecurus myosuroides; 15 g of ai/ha) was 0%, the Alopecurus myosuroides observed (Alopecurus myosuroides; 30 g of ai/ha) was 0% and the Amaranthus retroflexus observed (Amaranthus retroflexus; 30 g of ai/ha) was 0%. The Amaranthus retroflexus observed (Amaranthus retroflexus; 60 g of ai/ha) was 0%, the Bromus secalinus observed (Bromus secalinus; 30 g of ai/ha) was 0% and the Bromus secalinus observed (Bromus secalinus; 60 g of ai/ha) was 0%. For the same molecule, the Chenopodium album observed (Chenopodium album; 30 g of ai/ha) was 0%, the Chenopodium album observed (Chenopodium album; 60 g of ai/ha) was 0% and the Datura strumarium observed (Datura strumarium; 30 g of ai/ha) was 0%. It also gave a Datura strumarium observed (Datura strumarium; 60 g of ai/ha) of 0%, a Galium aparine observed (Galium aparine; 15 g of ai/ha) of 0% and a Galium aparine observed (Galium aparine; 30 g of ai/ha) of 0%. For the same molecule, the Galium aparine observed (Galium aparine; 60 g of ai/ha) was 0%, the Ipomoea hederacea observed (Ipomoea hederacea; 30 g of ai/ha) was 0% and the Ipomoea hederacea observed (Ipomoea hederacea; 60 g of ai/ha) was 0%. The Lolium perenne observed (Lolium perenne; 30 g of ai/ha) was 0%, the Lolium perenne observed (Lolium perenne; 60 g of ai/ha) was 0% and the Polygonum convolvolus observed (Polygonum convolvolus; 30 g of ai/ha) was 0%. It also gave a Polygonum convolvolus observed (Polygonum convolvolus; 60 g of ai/ha) of 0%, a Solanum nigrum observed (Solanum nigrum; 15 g of ai/ha) of 0% and a Solanum nigrum observed (Solanum nigrum; 30 g of ai/ha) of 0%. The Solanum nigrum observed (Solanum nigrum; 60 g of ai/ha) was 0%, the Stellaria media observed (Stellaria media; 30 g of ai/ha) was 0% and the Stellaria media observed (Stellaria media; 60 g of ai/ha) was 0%. It also gave a Viola arvensis observed (Viola arvensis; 15 g of ai/ha) of 0%, a Viola arvensis observed (Viola arvensis; 30 g of ai/ha) of 0% and a Viola arvensis observed (Viola arvensis; 60 g of ai/ha) of 0%. For the same molecule, the Xanthium strumarium observed (Xanthium strumarium; 30 g of ai/ha) was 0% and the Xanthium strumarium observed (Xanthium strumarium; 60 g of ai/ha) was 0%.
